Measurements taken from article PMC3735166, “Comparative Studies on Acetylcholinesterase Characteristics between the Aphids, Sitobion avenae and Rhopalosiphum padi” (Journal of Insect Science, 2013).
Where a name gives a salt, the structure may show the parent alone. Read-outs that look alike come from different tables or passages of the source.

Legend:
[1] = biological target: T1, purified AChE from S. avenae (Sitobion avenae, UniProt Q66S75); assay: Substrate specificity and kinetic analysis of purified AChE from S. avenae; assay type: biochemical; settings: for Vmax ± SE / Km: compound as substrate, 30°C; for Km: read-out: Km ± SE
T1 sequence (Q66S75 23-664): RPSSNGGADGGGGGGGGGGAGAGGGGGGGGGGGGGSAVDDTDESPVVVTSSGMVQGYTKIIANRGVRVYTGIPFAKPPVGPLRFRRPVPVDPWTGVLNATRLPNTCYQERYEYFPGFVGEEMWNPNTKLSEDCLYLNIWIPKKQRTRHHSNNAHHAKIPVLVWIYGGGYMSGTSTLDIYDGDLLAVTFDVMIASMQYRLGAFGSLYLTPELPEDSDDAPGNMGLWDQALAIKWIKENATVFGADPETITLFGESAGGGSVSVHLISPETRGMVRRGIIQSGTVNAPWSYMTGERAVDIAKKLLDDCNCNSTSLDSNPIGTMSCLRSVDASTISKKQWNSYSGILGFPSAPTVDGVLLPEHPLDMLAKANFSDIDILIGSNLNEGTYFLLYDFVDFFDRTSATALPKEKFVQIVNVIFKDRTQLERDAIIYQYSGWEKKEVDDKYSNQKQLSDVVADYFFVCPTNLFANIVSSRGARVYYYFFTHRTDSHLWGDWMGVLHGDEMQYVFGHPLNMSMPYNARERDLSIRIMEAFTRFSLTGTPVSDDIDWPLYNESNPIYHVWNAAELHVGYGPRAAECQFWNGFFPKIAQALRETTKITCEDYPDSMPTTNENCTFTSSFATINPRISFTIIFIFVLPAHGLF
Protocol: (§1) Purification of AChE from both aphid species was performed by affinity chromatography using procainamide as the affinity ligand. The procedure used in this study was according to the method of Gao and Zhu ([2001]) with some modifications, as follows:
(§2) Step 1: Preparation of crude extract. About 1.0 g apterous adults were homogenized in 10 mL ice-cold 0.1 M phosphate buffer (pH 7.5), containing 0.2 M NaCl and 0.5 % (v/v) Triton X-100 and three protease inhibitors (1 mM EDTA-Na2, 1 µM leupeptin, and 10 µM PMSF). The homogenate was filtered through cheesecloth and then centrifuged at 41,000 g, 4°C for 1 h. The supernatant, after being filtered through glass wool, was used as crude extract.
(§3) Step 2: Chromatography on sephadex G-25. […] The fractions (5 ml each) were collected at the flow rate of 45 mL/h at 4°C. All the fractions containing the AChE activity were collected as the enzyme resource for the next step.
(§4) Step 3: Procainamide affinity chromatography and removal of procainamide and condensation. The procainamide-based AChE affinity column was made according to the instructions from the manufacturer. […] The collected AChE dialyzed against 0.05 M, pH 7.5 phosphate buffer three times for 3 h. The enzyme was stored at 4°C and used as the enzyme source.
(§5) AChE activities were determined according to the method of Ellman et al. ([1961]) modified by Gao ([1987]), using ATCh, PrTCh, MeTCh and BuTCh as substrates. The AChE activities were determined at 6 substrate concentrations from 0.15625 to 5 mM based on the reaction at 30°C for 15 min and the reaction was stopped by the addition of 900 µL, DTNB (0.125 mM) with 40% ethanol, then the optical density (OD) was measured at 412 nm by spectrophotometer (Lambda Bio 40).
(§6) All statistical tests were performed by using SAS computer program (USA). Values of Michalelis-Menten constants (Km) and maximal velocities (Vmax) for four substrates were calculated by Enzfitter software (Biosoft, http://www.biosoft.com/).

[2] = biological target: T2, crude extract AChE from S. avenae (Sitobion avenae, UniProt Q66S75); assay: Substrate specificity and kinetic analysis of crude extract AChE from S. avenae; assay type: biochemical; settings: compound as substrate, 30°C; for Km: read-out: Km ± SE
T2 sequence (Q66S75 23-664): T1 sequence (Q66S75 23-664)
Protocol: as §2, §5, §6

[3] = biological target: T3, purified AChE from R. padi (Rhopalosiphum padi, UniProt Q6BCH8); assay: Substrate specificity and kinetic analysis of purified AChE from R. padi; assay type: biochemical; settings: for Vmax ± SE / Km: compound as substrate, 30°C; for Km: read-out: Km ± SE
Protocol: as §1, §2, §3, §4, §5, §6

[4] = biological target: T4, crude extract AChE from R. padi (Rhopalosiphum padi, UniProt Q6BCH8); assay: Substrate specificity and kinetic analysis of crude extract AChE from R. padi; assay type: biochemical; settings: compound as substrate, 30°C; for Km: read-out: Km ± SE
Protocol: as §2, §5, §6

[5] = biological target: T3, purified AChE from R. padi; assay: Substrate specificity and kinetic analysis of purified AChE from R. padi; assay type: biochemical; settings: substrate 15 mM
[6] = biological target: T3, purified AChE from R. padi; assay: Inhibition of purified AChE from R. padi (Ellman method, 5 min preincubation); assay type: biochemical; settings: for inhibitory percentage of AChE specific activity: inhibitor 10 µM
Protocol: as §1, §2, §3, §4, §5
(§7) The value of median inhibition concentration (I50) for the inhibitors were calculated based on log (inhibitor concentration) vs. probit (percentage of inhibition) linear regression.

[7] = biological target: T4, crude extract AChE from R. padi; assay: Inhibition of crude extract AChE from R. padi (Ellman method, 5 min preincubation); assay type: biochemical; settings: for inhibitory percentage of AChE specific activity: inhibitor 10 µM
Protocol: as §2, §5, §7

[8] = biological target: T2, crude extract AChE from S. avenae; assay: Inhibition of crude extract AChE from S. avenae (Ellman method, 5 min preincubation); assay type: biochemical; settings: for I50 times higher in S. avenae than in R. padi: ratio of I50 values of Table 4
Protocol: as §2, §5, §7

[9] = biological target: T1, purified AChE from S. avenae; assay: Inhibition of purified AChE from S. avenae (Ellman method, 5 min preincubation); assay type: biochemical
Protocol: as §1, §2, §3, §4, §5, §7

[10] = biological target: T4, crude extract AChE from R. padi; settings: comparison of the two aphid species; ref Lu and Gao 2009; cited from earlier work
S. avenae and R. padi = settings: comparison of the two aphid species, ref Lu and Gao 2009, cited from earlier work
[11] = preincubation 5 min at 30°C, mean of three determinations, read-out: I50 ± SE (median inhibition concentration)
[12] = S. avenae, preincubation 5 min at 30°C, mean of three determinations, read-out: I50 ± SE (median inhibition concentration)

T4 sequence (Q6BCH8 18-652): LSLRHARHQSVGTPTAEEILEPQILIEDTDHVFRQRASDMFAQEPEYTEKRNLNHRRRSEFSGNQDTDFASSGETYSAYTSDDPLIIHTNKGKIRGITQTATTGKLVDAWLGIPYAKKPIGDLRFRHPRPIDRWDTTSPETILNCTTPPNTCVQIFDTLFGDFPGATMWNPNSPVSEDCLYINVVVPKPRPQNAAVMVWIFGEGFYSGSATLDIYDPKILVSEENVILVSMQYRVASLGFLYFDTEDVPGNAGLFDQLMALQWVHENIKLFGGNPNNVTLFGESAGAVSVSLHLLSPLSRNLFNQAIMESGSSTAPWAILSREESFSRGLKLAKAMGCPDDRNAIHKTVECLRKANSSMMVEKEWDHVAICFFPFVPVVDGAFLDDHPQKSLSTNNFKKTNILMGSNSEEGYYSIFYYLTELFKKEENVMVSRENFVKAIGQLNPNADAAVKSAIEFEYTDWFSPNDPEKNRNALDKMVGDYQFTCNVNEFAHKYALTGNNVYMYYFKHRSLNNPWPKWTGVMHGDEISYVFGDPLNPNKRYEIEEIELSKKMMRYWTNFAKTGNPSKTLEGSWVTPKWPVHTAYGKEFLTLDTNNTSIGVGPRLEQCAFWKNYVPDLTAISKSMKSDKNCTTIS
T3 sequence (Q6BCH8 18-652): as above

SMILES	Vmax ± SE [1] [nmol/min/mg protein]	Km [1] [µM]	Vmax ± SE [2] [nmol/min/mg protein]	Km [2] [µM]	Vmax ± SE [3] [nmol/min/mg protein]	Km [3] [µM]	Vmax ± SE [4] [nmol/min/mg protein]	Km [4] [µM]	other results
CC(=O)SCC[N+](C)(C)C.[I-] [ATCh, Acetylthiocholine iodide]	152.75 ± 3.63	2280 ± 120	1.16 ± 0.11	650 ± 190	37.58 ± 1.01	2180 ± 130	1.27 ± 0.05	360 ± 50	substrate concentration at which substrate inhibition was observed [1]: > 10 mM; substrate concentration at which substrate inhibition was observed [3]: > 10 mM; specific activity of purified AChE [5]: 20.3 nmol/min/mg
C=CC[N+](C)(C)c1ccc(CCC(=O)CCc2ccc([N+](C)(C)CC=C)cc2)cc1.[Br-].[Br-] [BW284C51, 1,5-bis(4-allyldimethylammoniumphenyl)-pentan-3-one dibromide]	–	–	–	–	–	–	–	–	inhibitory percentage of AChE specific activity [6]: > 80%; IC50 [6, 11]: 2.57 ± 0.34 µM; inhibitory percentage of AChE specific activity [7]: about 50%; IC50 [7, 11]: 9.7 ± 1 µM; IC50 [8, 12]: 24.7 ± 4.9 µM; I50 times higher in S. avenae than in R. padi [8]: 2.5 times; inhibitory percentage of AChE specific activity ([9]; S. avenae, inhibitor 10 µM): > 80%; IC50 [9, 12]: 1 ± 0.13 µM; I50 fold lower in S. avenae than in R. padi ([9]; from I50 values of Table 5): 0.4 fold
CCCC(=O)SCC[N+](C)(C)C.[I-] [BuTCh, butyrylthiocholine iodide]	9.09 ± 0.14	1690 ± 60	11.88 ± 3.88	15100 ± 6210	2.17 ± 0.09	670 ± 80	4.12 ± 1.34	5340 ± 2790	–
CNC(=O)Oc1ccc2c(c1)[C@]1(C)CCN(C)[C@@H]1N2C [Eserine, eserine hemisulfate salt]	–	–	–	–	–	–	–	–	inhibitory percentage of AChE specific activity [6]: more than 90%; inhibitory percentage of AChE specific activity [7]: about 50%; I50 times higher in S. avenae than in R. padi [8]: 4.1 times
CC(=O)SC(C)C[N+](C)(C)C (stereo not drawn) [MeTCh, acetyl-(β-methyl) thiocholine]	118.32 ± 5.64	2230 ± 230	1.01 ± 0.10	400 ± 140	31.58 ± 1.03	2450 ± 170	1.10 ± 0.07	290 ± 80	substrate concentration at which substrate inhibition was observed [1]: > 10 mM; substrate concentration at which substrate inhibition was observed [3]: > 10 mM; specific activity of purified AChE [5]: 17.7 nmol/min/mg
Cc1nc(N(C)C)nc(OC(=O)N(C)C)c1C [Pirimicarb]	–	–	–	–	–	–	–	–	sensitivity of AChE to pirimicarb, R. padi versus S. avenae [10]: significantly higher in R. padi than in S. avenae; susceptibility / tolerance to pirimicarb in bioassays, S. avenae versus R. padi (S. avenae and R. padi): higher for S. avenae than for R. padi; susceptibility / tolerance to pirimicarb in bioassays, S. avenae versus R. padi (S. avenae and R. padi; listed as pirimicarb): R. padi was more susceptible than S. avenae
CCC(=O)SCC[N+](C)(C)C.[I-] [PrTCh, propionylthiocholine iodide]	94.01 ± 4.41	930 ± 120	1.04 ± 0.15	570 ± 260	24.24 ± 0.30	850 ± 30	0.76 ± 0.03	180 ± 40	–
